Measured values: patent US20210379210A1, “RADIOLIGANDS FOR IMAGING THE LPA1 RECEPTOR” (BRISTOL-MYERS SQUIBB COMPANY, priority 2018, published 2021)
Several values for one entry are separate records, joined by “and”; a condition that tells them apart may be missing. Equal entries are not always repeated. Where two headings read alike, the source gives them in different places.

What was measured:
[1] = Radio-metabolism, fraction intact post-injection; assay type: in vivo; conditions: at the 90 minute post-injection
[2] = target: LPA1 (Rattus norvegicus, UniProt P61794); assay: In-vivo PET imaging, lung uptake in wild type and bleomycin treated rats; conditions: for Lung uptake (% ID/g) @ 60-90 min: baseline PET scan, listed as [^18F]-(1S,3S)-3-(6-(5-((((4-(fluoro)butyl)(methyl)carbamoyl)oxy)methyl)-1-meth))
Method: (§1) [^18F]-(1S,3S)-3-(((6-(5-((((4-(fluoro)butyl)(methyl)carbamoyl)oxy)methyl)-1-methyl-1H-1,2,3-triazol-4-yl)-2-methylpyridin-3-yl)oxy)cyclohexane-1-carboxylic acid was tested to confirm its properties, specificity and targeting of the LPA1 receptor in aged-matched wild type (Sprague Dawley rat, Charles River Laboratory, PA) and bleomycin-induced pulmonary fibrosis rat models. The bleomycin-induced pulmonary fibrosis rat model was generated in anesthetized rats that were administered bleomycin (2 μL/g) via oropharyngeal instillation. For oropharyngeal instillation, anesthetized rats (isoflurane, 4% in 100% 02) were placed on a slanted board/tilting workstation and bleomycin was dripped onto the vocal cords, facilitating aspiration. Rats were then returned to their cages until they fully recovered from anesthesia and were monitored daily for the duration of the experiment. In this experiment, the [^18F]-labeled LPA1 antagonist, produced as described in the above Examples, was tested for its ability to discriminate between normal lung in wild type rats and increased lung LPA1 expression in the bleomycin rat disease model. The bleomycin treated rats were used at 14 and 15 days post bleomycin treatment. PET images were acquired at 14 days (baseline) and 15 days (blocking with a 10 mg/kg oral dose of an LPA1 antagonist administered 30 minutes before PET scan). Two groups of rats were used in the PET imaging study—aged matched wild type rats (Group 1, n=4) and bleomycin treated rats (Group 2, n=4). All animals received a baseline PET imaging scan and a repeat PET imaging scan following a single 10 mg/kg oral dose of an LPA1 antagonist. For PET image acquisition, rats were placed in an anesthetic induction chamber and 3% isoflurane inhalant anesthesia was delivered in 100% O2 at a rate of 1-1.5 L/min. Once sedated, the rats were removed from the induction chamber and placed into a plexiglass 2-chamber holder (custom-made by BMS-Applied Biotechnology group) within the gantry of the PET system (microPET® F220™, Siemens Preclinical Solutions, Knoxville, Tenn.) where they remained for the duration of the study. Anesthesia was maintained with 1-1.5% isoflurane inhalant anesthesia delivered in 100% 02 at a rate of 2 L/min via the nose-cone. Animals were kept warm using an external standalone temperature regulating unit (M2M Imaging Corp) to prevent hypothermia during imaging. Rat respiration was continuously monitored during imaging procedures and isoflurane was adjusted dependent on depth of anesthesia. A 10-minute transmission image was first acquired using a ^57Co point source for the purpose of attenuation correction of the final PET images and confirmation of lung localization for region of interest (ROI) analysis. The scanning region was located beginning at the neck area and extending toward the hind limbs of each animal in order to place the lungs within the 7.6 cm microPET system axial field of view (FOV). Upon completion of the transmission scan, each rat received administration of between 19.5-29.7 MBq (542-803 μCi) of [^18F]-(1S,3S)-3-(((6-(5-((((4-(fluoro)butyl)(methyl) carbamoyl)oxy)methyl)-1-methyl-1H-1,2,3-triazol-4-yl)-2-methylpyridin-3-yl)oxy)cyclohexane-1-carboxylic acid tracer via tail vein catheter followed by a 2 hour dynamic PET emission scan. For blocking studies, the same protocol was flowed 30 minutes after a 10 mg/kg oral dose of an LPA1 antagonist. Images were reconstructed using a maximum a posteriori (MAP) algorithm with attenuation correction using the collected transmission images and corrected for radioisotope decay. The PET images were then co-registered with corresponding transmission images using anatomical landmarks (air in lung) and boundaries of the animal holder. Images were analyzed by Inveon Research Workstation (Siemens Medical Solutions USA Inc., PA). Analysis for each rat was done with regions of interest (ROIs) drawn onto each whole lung and a section of the liver using the co-registered transmission images. […]

[3] = as above; parameters: species or system rat; conditions: Sprague Dawley, rat, lung, intravenous
Method: as §1

Chain of LPA1 (P61794 whole entry): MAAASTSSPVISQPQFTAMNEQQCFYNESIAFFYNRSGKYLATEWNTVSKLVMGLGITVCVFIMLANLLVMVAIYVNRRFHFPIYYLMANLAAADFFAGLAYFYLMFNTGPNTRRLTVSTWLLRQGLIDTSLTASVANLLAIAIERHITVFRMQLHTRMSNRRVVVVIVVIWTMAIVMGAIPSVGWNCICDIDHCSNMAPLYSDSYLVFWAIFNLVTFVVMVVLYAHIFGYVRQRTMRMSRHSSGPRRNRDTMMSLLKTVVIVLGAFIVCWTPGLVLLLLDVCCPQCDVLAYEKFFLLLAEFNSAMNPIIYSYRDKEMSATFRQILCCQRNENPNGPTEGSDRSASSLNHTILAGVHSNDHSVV

For Cc1nc(-c2nnn(C)c2COC(=O)N(C)CCCC[18F])ccc1O[C@H]1CCC[C@H](C(=O)O)C1 [Example 16], the “radio-metabolism, intact” value [1] was 80%, the “increase in the lung radioligand signal in disease induced model vs wild type animals” value ([2]; bleomycin treated vs wild type rats, baseline, p<0.05) was 46% and the “Lung uptake (% ID/g) @ 60-90 min” value ([2]; individual bleomycin treated rats (Group 2), 14 days post bleomycin) was 0.142 % ID/g and 0.118 % ID/g and 0.088 % ID/g. For the same compound, the “Lung uptake (% ID/g) @ 60-90 min” value ([2]; individual wild type rats (Group 1)) was 0.075 % ID/g and 0.063 % ID/g and 0.095 % ID/g, the tissue uptake ([3]; bleomycin treated rats (Group 2, n=4), baseline, 60-90 minutes post injection, read-out: mean and standard error of radiotracer uptake in lung tissue) was 0.116 %ID/g and the tissue uptake ([3]; individual bleomycin treated rats (Group 2), baseline PET scan, 14 days post bleomycin, read-out: Lung uptake (% ID/g) @ 60-90 min) was 0.116 %ID/g. It also gave a tissue uptake ([3]; individual wild type rats (Group 1), baseline PET scan, read-out: Lung uptake (% ID/g) @ 60-90 min) of 0.085 %ID/g and a tissue uptake ([3]; wild type rats (Group 1, n=4), baseline, 60-90 minutes post injection, read-out: mean and standard error of radiotracer uptake in lung tissue) of 0.08 %ID/g.
